Experimental data from patent US11660293B2, “Substituted 2-azabicyclo[3.1.1]heptane and 2-azabicyclo[3.2.1]octane derivatives as orexin receptor antagonists” (Chronos Therapeutics Limited, priority 2017, dated 2023).

Key:
[1] = target: human Orexin type 1 receptors (Homo sapiens (Human), UniProt O43613); test: Scintillation Proximity Assay (SPA) binding assay, [3H]SB-674042 displacement, CHO-hOX1 membranes
Experimental: Scintillation Proximity Assay (SPA) Binding Assays CHO cells stably transfected with human Orexin type 1 receptors (CHO-hOX1) or HEK-293 cells transiently transfected with human Orexin type 2 receptors (HEK-hOX2) were collected after 16 h induction with 5 mM sodium butyrate. […] The binding was performed in a final volume of 200 μl. 100 μl of hOX1 or hOX2 beads-membranes suspension were added to 100 μl of [^3H]SB-674042 or [^3H]EMPA solutions (radioligand concentration 2 nM final in the assay), into the 96-well Isoplates containing the 2 μl/well of compounds to be tested. Nonspecific binding was measured in the presence of 1 μM Almorexant. Assay plates were then incubated at room temperature for 3 h before being counted in a Microbeta scintillation counter (PerkinElmer). Data were analysed by non-linear regression analysis using XLfit Software.

[2] = target: human Orexin type 2 receptors (Homo sapiens (Human), UniProt O43614); test: Scintillation Proximity Assay (SPA) binding assay, [3H]EMPA displacement, HEK-hOX2 membranes
Sequence of human Orexin type 2 receptors (O43614 whole entry): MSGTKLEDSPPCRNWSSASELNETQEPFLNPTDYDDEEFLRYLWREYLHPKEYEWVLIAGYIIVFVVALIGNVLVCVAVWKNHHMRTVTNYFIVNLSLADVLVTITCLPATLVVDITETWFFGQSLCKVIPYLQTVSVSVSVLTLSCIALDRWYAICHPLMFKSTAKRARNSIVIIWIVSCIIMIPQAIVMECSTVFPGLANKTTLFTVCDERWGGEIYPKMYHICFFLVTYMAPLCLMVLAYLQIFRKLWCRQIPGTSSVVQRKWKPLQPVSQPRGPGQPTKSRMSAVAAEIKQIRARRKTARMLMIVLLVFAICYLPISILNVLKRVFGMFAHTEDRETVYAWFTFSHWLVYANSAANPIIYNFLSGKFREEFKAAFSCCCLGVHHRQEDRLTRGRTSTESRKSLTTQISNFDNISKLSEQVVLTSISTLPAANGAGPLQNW
Experimental: Scintillation Proximity Assay (SPA) Binding Assays
CHO cells stably transfected with human Orexin type 1 receptors (CHO-hOX1) or HEK-293 cells transiently transfected with human Orexin type 2 receptors (HEK-hOX2) were collected after 16 h induction with 5 mM sodium butyrate. The cell pellets were re-suspended, homogenized in 15 mM Tris/HCl pH=7.5, 1 mM EGTA, 0.3 mM EDTA, 2 mM MgCl2, protease inhibitors and centrifuged at 40,000 g (20 min, 4° C.). After re-suspension, homogenization and centrifugation as above, the final pellets were re-suspended in 75 mM Tris/HCl pH=7.5, 1 mM EGTA, 0.3 mM EDTA, 12.5 mM MgCl2, 250 mM Sucrose, protease inhibitors, divided into aliquots and frozen down at −80° C.
CHO-hOX1 cell membranes (6 μg ml^−1) or HEK-hOX2 membranes (8 μg ml^−1) were pre-coupled with 1.0 mg ml^−1 of Wheatgerm Agglutinin-coated Yttrium Silicate (YSi-WGA) SPA beads (Perkin Elmer) in buffer containing 25 mM HEPES pH=7.4, 1 mM CaCl2), 5 mM MgCl2, 0.01% (w/v) BSA, 0.02% (w/v) Pluronic F-127 by shaking at room temperature for 2.5-3 h.
The binding was performed in a final volume of 200 μl. 100 μl of hOX1 or hOX2 beads-membranes suspension were added to 100 μl of [^3H]SB-674042 or [^3H]EMPA solutions (radioligand concentration 2 nM final in the assay), into the 96-well Isoplates containing the 2 μl/well of compounds to be tested. Nonspecific binding was measured in the presence of 1 μM Almorexant. Assay plates were then incubated at room temperature for 3 h before being counted in a Microbeta scintillation counter (PerkinElmer).
Data were analysed by non-linear regression analysis using XLfit Software.

Sequence of human Orexin type 1 receptors (O43613 whole entry): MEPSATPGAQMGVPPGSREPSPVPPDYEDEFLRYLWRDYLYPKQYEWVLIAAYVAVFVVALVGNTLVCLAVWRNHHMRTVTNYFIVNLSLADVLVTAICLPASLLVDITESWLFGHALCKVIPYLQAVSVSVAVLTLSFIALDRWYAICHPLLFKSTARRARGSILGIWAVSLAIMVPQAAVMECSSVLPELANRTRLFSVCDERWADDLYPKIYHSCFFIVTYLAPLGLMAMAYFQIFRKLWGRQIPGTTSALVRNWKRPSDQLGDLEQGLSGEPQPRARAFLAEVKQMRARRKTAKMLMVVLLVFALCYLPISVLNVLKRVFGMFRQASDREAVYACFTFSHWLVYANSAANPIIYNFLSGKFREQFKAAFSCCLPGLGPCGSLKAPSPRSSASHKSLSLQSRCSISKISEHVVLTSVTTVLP

Compound	OX1 pKi (SPA binding) ([1]; Table 2, [3H]SB-674042 2 nM)	OX2 pKi (SPA binding) ([2]; Table 2, [3H]EMPA 2 nM)	OX1 pKi (SPA binding) ([1]; Table 1, [3H]SB-674042 2 nM)	OX2 pKi (SPA binding) ([2]; Table 1, [3H]EMPA 2 nM)
Cc1ccc(-n2nccn2)c(C(=O)N2C3CC(C3)[C@@H](C)C2CNc2ncc(C(F)(F)F)cn2)n1 (mixture of isomers) [Example 193, cis-N-({4-methyl-2-[6-methyl-3-(2H-1,2,3-triazol-2-yl)pyridine-2-carbonyl]-2-azabicyclo[3.1.1]heptan-3-yl}methyl)-5-(trifluoromethyl)pyrimidin-2-amine]	7.57	4.64	–	–
Cc1ccc(-c2ncc(C(F)(F)F)cn2)c(C(=O)N2C3CC(C3)[C@@H](C)C2COc2ccc(F)cc2)n1 (mixture of isomers) [Example 133, cis-3-[(4-fluorophenoxy)methyl]-4-methyl-2-{6-methyl-3-[5-(trifluoromethyl)pyrimidin-2-yl]pyridine-2-carbonyl}-2-azabicyclo[3.1.1]heptane]	7.25	6.79	–	–
Cc1ccc(-n2ncc(C)n2)c(C(=O)N2C3CC(C3)[C@H](C)C2COc2ccc(F)cc2)n1 (mixture of isomers) [Example 127, trans-3-[(4-fluorophenoxy)methyl]-4-methyl-2-[6-methyl-3-(4-methyl-2H-1,2,3-triazol-2-yl)pyridine-2-carbonyl]-2-azabicyclo[3.1.1]heptane]	7.91	6.1	–	–
C[C@@H]1C2CC(C2)N(C(=O)c2cc(C#N)ccc2-n2nccn2)C1CNc1cnc(C(F)(F)F)cn1 (mixture of isomers) [Example 237, cis-3-[4-methyl-3-({[5-(trifluoromethyl)pyrazin-2-yl]amino}methyl)-2-azabicyclo[3.1.1]heptane-2-carbonyl]-4-(2H-1,2,3-triazol-2-yl)benzonitrile]	7.33	4.82	–	–
Cc1cn(-c2ccc(C)nc2C(=O)N2C3CC(C3)[C@@H](C)C2COc2ccc(F)cc2)nn1 (mixture of isomers) [Example 146, cis-3-[(4-fluorophenoxy)methyl]-4-methyl-2-[6-methyl-3-(4-methyl-1H-1,2,3-triazol-1-yl)pyridine-2-carbonyl]-2-azabicyclo[3.1.1]heptane]	6.88	5.53	–	–
Cc1ccc(-c2sc(C)nc2C(=O)N2C3CC(C3)[C@@H](C)C2COc2ccc(F)cc2)cn1 (stereo partly drawn) [Example 143, cis-3-[(4-fluorophenoxy)methyl]-4-methyl-2-[2-methyl-5-(6-methylpyridin-3-yl)-1,3-thiazole-4-carbonyl]-2-azabicylco[3.1.1]heptane]	7.14	5.93	–	–
C[C@@H]1C2CC(C2)N(C(=O)c2cc(F)ccc2-n2nccn2)C1CNc1cnc(C2CC2)cn1 (some centres unmarked) [Example 258]	7.07	5.35	–	–
Cc1ccc(-n2nccn2)c(C(=O)N2C3CC(C3)[C@@H](C)C2CNc2cnc3ccccc3n2)n1 (single isomer, unassigned) [Example 159, N-{[(3S,4R) or (3R,4S)-4-methyl-2-[6-methyl-3-(2H-1,2,3-triazol-2-yl)pyridine-2-carbonyl]-2-azabicyclo[3.1.1]heptan-3-yl]methyl}quinoxalin-2-amine]	6.84	4.59	–	–
C[C@@H]1C2CC(C2)N(C(=O)c2cc(Cl)ccc2-n2nccn2)C1CNc1nc2ccc(F)cc2s1 (mixture of isomers) [Example 171, cis-N-({2-[5-chloro-2-(2H-1,2,3-triazol-2-yl)benzoyl]-4-methyl-2-azabicyclo[3.1.1]heptan-3-yl}methyl)-6-fluoro-1,3-benzothiazol-2-amine]	8.9	6.32	–	–
Cc1cnn(-c2ccc(C)nc2C(=O)N2C3CC(C3)[C@@H](C)C2COc2ccc(F)cc2)c1 (mixture of isomers) [Example 135, cis-3-[(4-fluorophenoxy)methyl]-4-methyl-2-[6-methyl-3-(4-methyl-1H-pyrazol-1-yl)pyridine-2-carbonyl]-2-azabicyclo[3.1.1]heptane]	7.78	6.39	–	–
Cc1ccc(-n2nccn2)c(C(=O)N2C3CC(C3)[C@H](C)C2COc2ccc(F)cc2)c1 (stereo partly drawn) [Example 109, trans-3-[(4-fluorophenoxy)methyl]-4-methyl-2-[5-methyl-2-(2H-1,2,3-triazol-2-yl)benzoyl]-2-azabicyclo[3.1.1]heptane]	–	–	7.51	5.89
Cc1nc(C(=O)N2C(COc3cccc(F)c3)CC3CC2C3)c(-c2ccccc2)s1 (centres unmarked) [Example 44]	–	–	7.15	6.38
Cc1ccc(-n2nccn2)c(C(=O)N2C3CC(C3)[C@@H](C)C2CNc2nc3ccccc3o2)n1 (single isomer, unassigned) [Example 226, N-{[(3S,4R) or (3R,3S)-4-methyl-2-[6-methyl-3-(2H-1,2,3-triazol-2-yl)pyridine-2-carbonyl]-2-azabicyclo[3.1.1]heptan-3-yl]methyl}-1,3-benzoxazol-2-amine]	8.46	5.39	–	–
C[C@@H]1C2CC(C2)N(C(=O)c2cc(F)ccc2-n2nccn2)C1CNc1ncc(C2CC2)cn1 (some centres unmarked) [Example 260]	7.45	4.89	–	–
Cc1nc(C(=O)N2C3CC(C3)[C@H](F)[C@H]2COc2ccc(F)cn2)c(-c2ccccc2)s1 (single isomer, unassigned) [Example 63, (3R,4S or 3S,4R)-4-fluoro-3-{[(5-fluoropyridin-2-yl)oxy]methyl}-2-(2-methyl-5-phenyl-1,3-thiazole-4-carbonyl)-2-azabicyclo[3.1.1]heptane]	–	–	8.06	6.37
Cc1ccc(-n2nccn2)c(C(=O)N2C3CC(C3)[C@@H](C)C2CNc2nc3cc(F)ccc3s2)n1 (mixture of isomers) [Example 157, cis-5-fluoro-N-({4-methyl-2-[6-methyl-3-(2H-1,2,3-triazol-2-yl)pyridine-2-carbonyl]-2-azabicyclo[3.1.1]heptan-3-yl}methyl)-1,3-benzothiazol-2-amine]	7.84	5.63	–	–
Cc1ccc(-n2nccn2)c(C(=O)N2C3CC(C3)[C@@H](C)C2CNc2nc3ccccc3o2)n1 (single isomer, unassigned) [Example 227, N-{[(3R,4S) or (3S,4R)-4-methyl-2-[6-methyl-3-(2H-1,2,3-triazol-2-yl)pyridine-2-carbonyl]-2-azabicyclo[3.1.1]heptan-3-yl]methyl}-1,3-benzoxazol-2-amine]	7.11	4.9	–	–
C[C@@H]1C2CC(C2)N(C(=O)c2ccc(Cl)cc2-n2nccn2)C1CNc1cnc(C(F)(F)F)cn1 (mixture of isomers) [Example 246, cis-N-({2-[4-chloro-2-(2H-1,2,3-triazol-2-yl)benzoyl]-4-methyl-2-azabicyclo[3.1.1]heptan-3-yl}methyl)-5-(trifluoromethyl)pyrazin-2-amine]	7.57	5.61	–	–
Cc1ccc(-n2nccn2)c(C(=O)N2C3CC(C3)[C@H](C)C2CNc2nc3ccccc3s2)n1 (stereo partly drawn) [Example 150, trans-N-({4-methyl-2-[6-methyl-3-(2H-1,2,3-triazol-2-yl)pyridine-2-carbonyl]-2-azabicyclo[3.1.1]heptan-3-yl}methyl)-1,3-benzothiazol-2-amine]	7.5	6.14	–	–
Cc1ccc(-n2nccn2)c(C(=O)N2C3CC(C3)[C@H](C)C2COc2ccc(Cl)cc2)n1 (single isomer, unassigned) [Example 120, (3R,4R) or (3S,4S)-3-[(4-chlorophenoxy)methyl]-4-methyl-2-[6-methyl-3-(2H-1,2,3-triazol-2-yl)pyridine-2-carbonyl]-2-azabicyclo[3.1.1]heptane]	8	5.98	–	–
O=C(c1nc(Cl)sc1-c1ccccc1)N1C(COc2ccc(F)cc2)CC2CC1C2 (centres unmarked) [Example 51]	–	–	7.22	–
